Experimental data published in US9102620B2, “Deuterated N-ethyl-N-phenyl-1,2-dihydro-4-hydroxy-5-chloro-1-methyl-2-oxoquinoline-3-carboxamide, salts and uses thereof” (TEVA PHARMACEUTICAL INDUSTRIES, LTD., priority 2010, dated 2015).
Values joined by “and” are separate entries in the source; they are usually repeats but may differ in a detail not shown here. Identical values can stand only once. Like-named read-outs stand apart in the source and are kept apart here.

Legend:
[1] = Pharmacokinetic profile in rat plasma following oral administration; assay type: in vivo
Experimental: The main objectives of this example were: • Quantification of Compound 1, Compound 2, Compound 3 and Laquinimod in rat plasma using LC/MS/MS bioanalytical method. • Characterization of the pharmacokinetic profile of Compound 1, Compound 2, Compound 3 and Laquinimod following oral (PO) administration at a dose of 0.2 mg/kg. • The measurement DELAQ concentrations in the collected plasma samples. Rats cannulated at the right common jugular vein by polyethylene tubing were used. In the in-life part, three cannulated female rats were treated with each of the four test articles at dose of 0.2 mg/kg. Blood was withdrawn from the rats at five different time points for the preparation of plasma. The concentrations of Compound 1, Compound 2, Compound 3, laquinimod, and DELAQ were determined in these plasma samples, using applicable LC/MS/MS methods. Oral administration was performed by oral gavage at a dosage volume of 5 ml/kg using a blunt feeding stainless steel needle (Popper & Sons, USA). Body weights were measured before dose administration and doses were calculated on the basis of individual body weight. Blood were withdrawn from animals at the following time points: 1, 2, 4, 8 and 24 hours after dosing as detailed in the table below. The actual sampling time were recorded. Each animal was restrained firmly. After the removal of the seal the port of the cannula was accessed with an appropriate blunted needle mounted on a syringe containing PBS. After having withdrawn approximately 100 μL of blood, the syringe was changed to a clean heparinized syringe. Approximately 250 μL of blood was collected for the preparation of plasma. The first 100 μL fraction of blood was returned and 250 μL of PBS was given to the animal through the catheter. The catheter was filled by heparinized glycerol (100 IU/ml) solution prepared by mixing 10 ml stock heparin (200 IU/ml) with 10 ml of sterile glycerol (d=1.26 g/mL). Blood specimens were mixed immediately and were placed on water ice. Whole blood was centrifuged at 2500 g for 10 min at 4° C., and the separated plasma was transferred into pre-labeled polypropylene tubes and the tubes were frozen at −70° C. within 70 minutes of collection. The concentrations of test items (Compound 1, Compound 2, Compound 3 and Laquinimod) and the concentration of DELAQ were determined in the plasma samples by using reliable LC/MS/MS assay. Pharmacokinetic parameters were calculated and the mean plasma levels versus time curves were evaluated. The following pharmacokinetic parameters were determined from the mean plasma concentration-time data (mean of three animals at each time point) of Compound 1, Compound 2, Compound 3 and Laquinimod.

MOG induced EAE = MOG induced EAE in C57BL/6 mice; assay type: in vivo; details: 10 mg/kg orally, daily; for Mortality: Day 0 to Day 30; for % inhibition 1 (according to incidence) / % inhibition 2 (according to MMS) / % inhibition 3 (according to GMS): compared to vehicle; for Incidence: sick mice/group
CYP1A2 = details: human, 3 days; for Enzyme activity, Phenacetin O-dealkylation (CYP1A2) / Percent positive control, Phenacetin O-dealkylation (CYP1A2) activity: hepatocytes
Experimental: (§1) After treatment, the cells were incubated in situ with marker substrates for the analysis of phenacetin O-dealkylation (marker for CYP1A2) and midazolam 1′-hydroxylation (marker for CYP3A4/5) by LC/MS/MS.
Incubations of hepatocytes with probe substrates were conducted in accordance with SOP L5041.02. Approximately 24 hours after the last treatment, spent media was aspirated from the wells, and each well was rinsed two times with pre-warmed (37±2° C.) fresh culture media. Media was aspirated from the wells and reactions were started by addition of 200 μL pre-warmed media containing the probe substrate to each well. […] At 30 minutes, an aliquot (150 μL) of the incubation mixture was removed and added to a well of a 96-well plate containing 300 μL of stop reagent (acetonitrile) and internal standard (Table 2). The mixtures were mixed thoroughly and allowed to sit for at least 15 minutes at 2-8° C. Samples were centrifuged at 2000×g for 10 minutes at 2-8° C., and supernatant fractions were analyzed by LC/MS/MS.
All analyses were performed with validated LC/MS/MS methods. The procedures used for the analysis of each metabolite followed the applicable LC/MS/MS analytical method SOPs and are summarized in Table 2. The MS equipment was either an ABI Sciex (Applied Biosystems/MDS SCIEX) API 4000 or API 3000 instrument with Shimadzu HPLC pumps and autosampler systems.
Individual rates of reaction from like treatment groups were averaged, and for those groups with n≧3, standard deviations were determined. Fold increases were determined by dividing the enzymatic rate for each treatment group by that of the vehicle control. Percent positive control was calculated with the following equation: […]

CYP1A2 mRNA = details: human, 3 days
Experimental: as §1
Approximately 24 hours after the last treatment, hepatocytes were lysed in TRIzol reagent after the in situ marker substrate incubations, and cell lysates were stored at −75±5° C. For human hepatocyte preparation H971, media from six wells per treatment group was aspirated, and approximately 132 μL TRIzol were added to each well. The cell lysates were mixed by repeated pipetting. Total RNA was isolated from the cell lysates using the TRIzol protocol (Invitrogen) and was purified using the RNeasy Mini Kit (Qiagen Inc.) according to SOP L6161.02. RNA quality and concentration were determined by measuring absorbance at 260 and 280 nm on a BioTek Synergy HT plate reader (BioTek Instruments, Inc.) with KC4 Signature software (version 3.4 Rev 21, BioTek Instruments, Inc.) according to SOP L6162.02. The analysis of RNA integrity was carried out with the RNA 6000 Nano Assay Kit on an Agilent 2100 Bioanalyzer (Agilent Technologies, Inc.) according to SOP L6162.02. Single-stranded cDNA was prepared from RNA with the RT Master Mix using the AB 7300 Real Time PCR system thermocycling program or AB 7900HT Fast Real Time PCR System thermocycling program (Applied Biosystems) according to SOP L6160.04. […] The RT Master Mix was added to each RNA sample to complete the components of the reaction. No template controls (NTCs) were included in the analysis. For the NTC reactions, RNase-free water was added in place of the RNA sample. The cDNA prepared samples were stored at −20±5° C. prior to analysis by qRT-PCR.
Quantitative RT-PCR was carried out according to SOP L6160.04 (XenoTech, LLC) and the Applied Biosystems protocol. Each PCR was performed in triplicate. A Primer Mix was prepared for each Gene Expression assay. A typical Primer Mix contained TaqMan Universal Master Mix (1×), Gene Expression Assay (1×, 900 nM forward and reverse primers) and RNase-free water. The Reaction Mix was prepared by adding the Primer Mix to cDNA. A percentage of samples (no less than 10%) included NACs. […] The relative quantity of the target cDNA compared with that of the control cDNA (GAPDH) was determined by the ΔΔCt method (Applied Biosystems User Bulletin #2). Relative quantification measures the change in mRNA expression in a test sample relative to that in a control sample (e.g., DMSO). This method assumes that the efficiency of the target amplification and the efficiency of the endogenous control amplification are approximately equal.
For qRT-PCR, data were processed using the Sequence Detection System (SDS) Software version 1.4, for Relative Quantification (Applied Biosystems). This software analyzes relative gene expression using the comparative Ct method (ΔΔCt), which relates the PCR signal of the target transcript to the PCR signal of the target in an untreated control. Both the treated sample and the untreated control signals are normalized to the endogenous control (GAPDH), for which expression is not affected by treatment and expression is constant throughout the tissue being tested. […] Calculations are as follows: ΔCt=Ct(target)−Ct(endogenous control) 1. ΔΔCt=ΔCt(treated sample)−ΔCt(untreated control) 2. Fold change in expression=2−ΔΔCt 3.
The level of mRNA expression relative to the positive control was calculated as follows: […]

[2] = female, rat, po, 0.2 mg/kg, Average of rats
[3] = female, rat, po, 0.2 mg/kg, Average of rats, read-out: Cmax
[4] = female, rat, po, 0.2 mg/kg, Average of rats, read-out: Tmax
[5] = female, rat, po, 0.2 mg/kg, individual rats
[6] = female, rat, po, 0.2 mg/kg, individual rats, read-out: Cmax
[7] = female, rat, po, 0.2 mg/kg, individual rats, read-out: Tmax
[8] = individual rats, oral 0.2 mg/kg

Compound `[2H]c1c([2H])c([2H])c(N(CC)C(=O)c2c(O)c3c(Cl)cccc3n(C)c2=O)c([2H])c1[2H]` [Compound 1, N-ethyl-N-D5-phenyl-1,2-dihydro-4-hydroxy-5-chloro-1-methyl-2-oxoquinoline-3-carboxamide] has an AUC(0-inf) [1, 2] of 13800 ng·h/mL, an AUC(0-t) [1, 2] of 10400 ng·h/mL and a half-life [1, 2] of 11.3 h. It also gave a Cmax [1, 3] of 774 ng/mL, a Tmax [1, 4] of 1.8 h and an AUC(0-inf) [1, 5] of 19300 ng·h/mL. It also gave an AUC(0-t) [1, 5] of 13700 ng·h/mL, a half-life [1, 5] of 13.4 h and a Cmax [1, 6] of 945 ng/mL. For the same compound, the Tmax [1, 7] was 1 h, the AUCinf [1, 8] was 13617.9 ng·h/mL and 9733.8 ng·h/mL and 12447.9 ng·h/mL and the AUClast [1, 8] was 10011.7 ng·h/mL and 8039.3 ng·h/mL and 10061.6 ng·h/mL. For the same compound, the Cmax [1, 8] was 730.7 ng/mL and 611.9 ng/mL and 809.5 ng/mL, the T1/2 [1, 8] was 12.1 h and 9.5 h and 10.0 h and the Tmax [1, 8] was 2.0 h. For the same compound, the “GMS value (group mean score)” value (MOG induced EAE) was 0.74 ± 0.86, the “MMS value (mean maximal score)” value (MOG induced EAE) was 1.5 ± 1.7 and the “Mean Duration” value (MOG induced EAE) was 7.9 ± 8.2 days. The “Mean Onset” value (MOG induced EAE) was 22.1 ± 8.9 days, the “activity in inhibition of EAE clinical signs compared to laquinimod” value (MOG induced EAE) was “no significant difference in activity” and the Mortality (MOG induced EAE) was 0/15. For the same compound, the “% inhibition 1 (according to incidence)” value (MOG induced EAE) was 42.9%, the “% inhibition 2 (according to MMS)” value (MOG induced EAE) was 53.1% and the “% inhibition 3 (according to GMS)” value (MOG induced EAE) was 66.5%. For the same compound, the Incidence (MOG induced EAE) was 8/15.
For `[2H]c1c([2H])c([2H])c(N(C(=O)c2c(O)c3c(Cl)cccc3n(C)c2=O)C([2H])([2H])C([2H])([2H])[2H])c([2H])c1[2H]` [Compound 3, N-D5-ethyl-N-D5-phenyl-1,2-dihydro-4-hydroxy-5-chloro-1-methyl-2-oxoquinoline-3-carboxamide], the AUC(0-inf) [1, 2] was 15800 ng·h/mL, the AUC(0-t) [1, 2] was 10500 ng·h/mL and the half-life [1, 2] was 12.4 h. The Cmax [1, 3] was 835 ng/mL, the Tmax [1, 4] was 1.4 h and the AUC(0-inf) [1, 5] was 15800 ng·h/mL. It also gave a half-life [1, 5] of 11.5 h, a Cmax [1, 6] of 908 ng/mL and a Tmax [1, 7] of 1 h. The AUCinf [1, 8] was 18246.2 ng·h/mL and 15225.2 ng·h/mL and 14845.1 ng·h/mL and 14643.7 ng·h/mL, the AUClast [1, 8] was 12110.0 ng·h/mL and 12471.5 ng·h/mL and 11280.4 ng·h/mL and 5317.8 ng·h/mL and 11156.0 ng·h/mL and the Cmax [1, 8] was 800.4 ng/mL and 728.9 ng/mL and 833.2 ng/mL and 904.3 ng/mL. For the same compound, the T1/2 [1, 8] was 14.4 h and 12.7 h and 12.0 h and 11.6 h, the Tmax [1, 8] was 2.0 h and the “GMS value (group mean score)” value (MOG induced EAE) was 0.89 ± 0.94. For the same compound, the “MMS value (mean maximal score)” value (MOG induced EAE) was 1.6 ± 1.6, the “Mean Duration” value (MOG induced EAE) was 9.6 ± 9.4 days and the “Mean Onset” value (MOG induced EAE) was 21.5 ± 9.3 days. The “activity in inhibition of EAE clinical signs compared to laquinimod” value (MOG induced EAE) was “no significant difference in activity”, the Mortality (MOG induced EAE) was 0/15 and the “% inhibition 1 (according to incidence)” value (MOG induced EAE) was 28.6%. The “% inhibition 2 (according to MMS)” value (MOG induced EAE) was 50.1%, the “% inhibition 3 (according to GMS)” value (MOG induced EAE) was 59.7% and the Incidence (MOG induced EAE) was 10/15.
In the case of `COCC(=O)O[C@]1(CCN(C)CCCc2nc3ccccc3[nH]2)CCc2cc(F)ccc2[C@@H]1C(C)C` [Mibefradil], the “Fold Increase, Phenacetin O-dealkylation (CYP1A2) activity” value (CYP1A2; 10 μM) is reported as 3.76 fold, the “Enzyme activity, Phenacetin O-dealkylation (CYP1A2)” value (CYP1A2; 10 μM) is reported as 11.3 ± 2.1 pmol/mg protein/min and the “Percent positive control, Phenacetin O-dealkylation (CYP1A2) activity” value (CYP1A2; 10 μM) is reported as 10.1%. The “mRNA Fold increase, CYP1A2” value (CYP1A2 mRNA; 10 μM) was 0.423 fold, the “decrease in CYP1A2 mRNA levels compared to vehicle control” value (CYP1A2 mRNA; hepatocytes, 10 μM) was 57.7% and the “mRNA Percent positive control, CYP1A2” value (CYP1A2 mRNA; hepatocytes, 10 μM) was −7.61%.
In the case of `COc1ccc2[nH]c([S+]([O-])Cc3ncc(C)c(OC)c3C)nc2c1` (centres unmarked) [Omeprazole], the “Enzyme activity, Phenacetin O-dealkylation (CYP1A2)” value (CYP1A2; 100 μM) is reported as 84.9 ± 5.4 pmol/mg protein/min, the “Percent positive control, Phenacetin O-dealkylation (CYP1A2) activity” value (CYP1A2; 100 μM) is reported as 100% and the “mRNA Fold increase, CYP1A2” value (CYP1A2 mRNA; 100 μM) is reported as 8.58 fold. For the same compound, the “mRNA Percent positive control, CYP1A2” value (CYP1A2 mRNA; hepatocytes, 100 μM) was 100%.
